Results as given in patent US20230064879A1, “NANODRUG PARTICLES, THE USE THEREOF, AND PREPARATION METHOD THEREOF” (NATIONAL YANG MING CHIAO TUNG UNIVERSITY, priority 2021, published 2023).
Converted amounts (≈) assume the structure as drawn.

Key:
[1] = In vitro release of camptothecin (dialysis bag, Korsmeyer-Peppas model); assay type: physicochemical; details: PBS pH 7.4, 37° C., 168 hours, MWCO 2,000 Da
Method: The in vitro release of camptothecin under different conditions were compared; the conditions were: […] The test duration time was 168 hours, the test temperature was 37° C., and the dialysis bag with molecular weight cut-off (MWCO) of 2,000 Da was used.

[2] = system: A549 cells; assay: Cytotoxicity test on A549 cells; assay type: cell-based; details: Homo sapiens, 24 hours after drug administration
Method: The amount of the cells in each test well was 100 cells. 24 hours after the drug administration, the cell counts were measured.

[3] = system: HT-29 cells; assay: Cytotoxicity test on HT-29 cells; assay type: cell-based; details: Homo sapiens, 24 hours after drug applied

In the case of `CC[C@@]1(O)C(=O)OCc2c1cc1n(c2=O)Cc2cc3ccccc3nc2-1` [Camptothecin], the “K (Korsmeyer-Peppas model)” value [1] is reported as 44.25, the “n (Korsmeyer-Peppas model)” value [1] is reported as 0.09985 and the IC50 [2] is reported as 40.1 µg/mL (≈ 115 µM). For the same compound, the IC50 [3] was 52.3 µg/mL (≈ 150 µM).
